Experiment [1] relates to IBL-1 (EBV+ DLBCL). The experiment is described as follows: cells. It counts as cell-based. The settings on record: Homo sapiens, 48 h, read-out: LC50 IBL-1 (DLBCL). The procedure: (§1) Cell viability assays were performed by plating log-phase cells in RPMI complete media with 20% FBS at 1*10^5 cells/mL, with concentrations of 6-ETI or phospho-6-ETI ranging from 0.1 nM to 100 μM. ATP content at 24, 48 and 72 hours post-treatment was measured by the CellTiter-Glo kit (Promega, Madison, Wis.), or by Trypan blue assay as indicated. The LC50 for 6-ETI in each cell line was determined using online EC50 software at changbioscience.com or using GraphPad Prism to determine the LC50 for 6-ETI, phospho-6-ETI and nucleoside analogs in MM cell lines and primary MM patient samples.

Experiment [2] deals with BC3 (PEL). Kind of experiment: cells. It counts as cell-based. The settings on record: Homo sapiens; 48 hours, CellTiter-Glo; read-out: LC50 BC3 (PEL). As for the experimental part:
as §1

In experiment [3] the test system is U266 (MM). Kind of experiment: cells. The settings on record: Homo sapiens, U-266, 48 h, read-out: LC50 U266 (MM) in nM. It counts as cell-based. The procedure:
as §1

For experiment [4], the target named is ADK (Homo sapiens, UniProt P55263). The experiment is described as follows: In vitro ADK kinase assay with HPLC/MS. The settings on record: 37° C., 5-360 minutes. It counts as biochemical. As for the experimental part:
The ADK kinase assay kit was purchased from Novocib, France. ADK and ATP provided in the kit were premixed into provided kinase assay buffer. The reaction at 37° C. was started by addition of 6-ETI in DMSO at T=0, followed by quenching of 10 μL of the reaction by 30 μL acetonitrile in an eppendorf tube at 5, 10, 15, 30, 60, 120, 150, 180, and 360 minutes. The quenched reaction was briefly vortexed and centrifuged at ˜7000 g, following which the supernatant was transferred into a fresh tube and stored at 4° C. for HPLC/MS analysis. A control reaction was set up containing ADK, ATP, and Inosine, in order to generate a standard peak for IMP, while ADK, DTT, and ATP controls were generated by dissolving individual kit components in a 3:1 acetonitrile:dH2O solution.
LCMS separations were performed using a Waters ACQUITY UPLC system equipped with ACQUITY PDA (diode array), Waters Micromass SQD 2000 spectrometer, and a Waters ACQUITY BEH C18 column (1.7 μm, 2.1×100 mm). The solvent system consisted of 0.1% Formic Acid in Water (Solvent A) and 0.1% Formic Acid in Acetonitrile (Solvent B). Flow was set to 0.3 mL/min, and a gradient of 5-95% Solvent B was applied over a period of 3 minutes. Total runtime was 4 minutes. Eluents were detected using a PDA at a wavelength of 254 nm. Mass data was obtained in both positive and negative electrospray mode, at a cone voltage of 30V.

Experiment [5] relates to IBL1 cells. The experiment is described as follows: Trypan-blue exclusion viability, non-PEL cell line. It counts as cell-based. The settings on record: Homo sapiens; selected non-PEL cell line (IBL1), 48 hours; read-out: LC50 by Trypan-blue exclusion. As for the experimental part: as §1
Experiment [6] relates to 6-ETI-resistant BC3 clones and xenograft cell lines 2-3 low and 3-5 low. The experiment is described as follows: Viability assay in 6-ETI-resistant BC3-derived cell lines. The format is cell-based. As for the experimental part: To generate 6-ETI resistant clones, BC3 cells were plated in RPMI-1640 with 50 μg/mL Gentamicin and 20% FBS under 6-ETI selection in multiple 96-well plates at 1*10^5 cells/mL. Selection was begun at 15 nM, 30 nM, or 60 nM 6-ETI. Cells were split every three days, with the dose of 6-ETI doubled at least 1×/week. Selection continued until a few clonal populations remained, after which the clones were expanded into fresh plates under selection with 10 μM 6-ETI. Clones retrieved were designated NSCE-1, NSCE-2, NSCE-3, NSCE-4, NSCE-5, NSCE-6, NSCE-7, NSCE-8, in chronological order of selection from the original plates.
The ascites from these mice were harvested ex vivo, and following Ficoll extraction, placed in culture in RPMI-1640 with 10% FBS.

In experiment [7] the test system is PEL cells (BC3). Kind of experiment: Viability after zVAD-FMK pan-caspase inhibitor pre-treatment. The format is cell-based, human. The settings on record: 80 μM zVAD-FMK pre-treatment, 48 hours. As for the experimental part:
as §1

The test system of experiment [8] is BC3 cells. The experiment is described as follows: Propidium iodide cell cycle flow cytometry. It counts as cell-based, human. The settings on record: BC3, 1 μM, 24 hours. The procedure:
BC3 cells in the exponential phase were seeded at a cell density of 2*10^5 cells/mL. Cells were treated with 0.1% DMSO or with 6-ETI at a final concentration of 1 μM 6-ETI for 24 hrs for cell cycle. Post-treatment, cells were harvested, fixed and stained in Propidium Iodide (Roche). Subsequently, stained cells were analyzed by flow cytometry using BD FACS Aria II SORP cell sorter, and phases of the cell cycle modeled using FlowJo v7.6.5.

In experiment [9] the test system is p65/p50 binding to the NF-κB response element in BC3 PEL cell line. The experiment is described as follows: EMSA of NF-κB binding in BC3 cells. It counts as cell-based, human. As for the experimental part:
BC3 or LCL9001 cells were plated at 5*10^5 cells/ml, and treated with the hit compounds at 25 μM or with NSC39368 at 5, 10, 25 and 50 μM for 24 hours. Nuclear extracts were obtained as previously described (Keller S. A. et al., Blood. 2000 96(7):2537-42), and electrophoretic mobility shift assays (EMSAs) were performed using an NF-κB-specific oligonucleotide probe.

Experiment [10] relates to KSHV latent proteins LANA, vFLIP and vCyclin. The experiment is described as follows: Western blot of KSHV latent proteins. It counts as cell-based. As for the experimental part: For all intracellular signaling studies, cell lines were plated at 2*10^5 cells/mL or at indicated densities in RPMI-1640 with 20% FBS, and treated with the stated concentrations of 6-ETI, from 6 to 48 hours. Immunoblotting was performed using the following antibodies: PARP (BD Pharmingen, 556494), LC3B (Cell Signaling, 2775S), phospho-l-listone H2AX.X S139 (Cell Signaling, 2577S), GAPDH (Gene Tex, GTX100118), ADK (Santa Cruz, sc-365470) vFLIP 6/14 antibody was a gift from Mary Collins at University College of London, vCyclin (Abcam, ab12208), LANA (Advanced Biotechnologies, 13-210-100), β-Actin (Sigma A5316), p65 (Cell Signaling C22B4, p50 (Cell Signaling 3035), October-1 (Cell Signaling 4428), p-IκBα (Santa Cruz 3-9 sc-8404), IκBα (Santa Cruz C-21 sc-371), pIKKα/β (ser 176)(Santa Cruz sc-21661), IKKα (Santa Cruz H-744 sc-7218).

Consider one compound from US20190225643A1, “NOVEL NUCLEOSIDE ANALOGS AND USE THEREOF IN THERAPEUTIC TREATMENT” (CORNELL UNIVERSITY, priority 2016, published 2019).

Molecules are shown by their SMILES.

ADK, sequence (P55263 whole entry): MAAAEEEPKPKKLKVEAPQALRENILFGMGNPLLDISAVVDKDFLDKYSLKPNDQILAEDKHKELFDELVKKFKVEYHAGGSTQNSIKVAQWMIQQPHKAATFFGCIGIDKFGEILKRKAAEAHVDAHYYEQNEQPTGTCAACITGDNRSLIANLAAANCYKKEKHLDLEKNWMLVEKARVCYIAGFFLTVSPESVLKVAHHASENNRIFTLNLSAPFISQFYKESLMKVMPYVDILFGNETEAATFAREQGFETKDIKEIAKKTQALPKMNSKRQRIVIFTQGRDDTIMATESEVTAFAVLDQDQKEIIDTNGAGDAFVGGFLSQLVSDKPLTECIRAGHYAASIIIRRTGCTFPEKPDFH

As for `CCSc1ncnc2c1ncn2[C@@H]1O[C@H](CO)C(O)[C@@H]1O` (stereo partly drawn) [Compound 6-ETI, 6-ethylthioinosine], the CC50 in experiment [1] was more than 100 µM; in experiment [2], 0.0498 µM; in experiment [3], 437 nM; in [5] it was 134 µM; in [6] (Homo sapiens, xenograft cell lines 2-3 low and 3-5 low after selection with 10 μM 6-ETI, read-out: LC50 (the source's name)), more than 100 µM. For the same compound, the “phosphorylation by ADK” value in [4] is listed as “ADK phosphorylates 6-ETI directly”. The “resistance of selected clones” value in experiment [6] (clones NSCE-1, -2, -3, -6, -7, -8) is “fully resistant”. Moreover, in [7], the “caspase dependence of induced cell death” value is on record as “largely caspase-independent”. Further, the cell cycle distribution result in experiment [8] is “reproducible increase in the percentage of cells in S-phase”. Besides, the “inhibition of active heterodimer p65/p50 binding to the NF-κB response element” value in experiment [9] (BC3, 24 hours) is “effectively inhibited”. Further, the “doses effective in inhibiting NF-κB in PELs” value in experiment [9] (PEL cells) lay within 10 to 50 µM. Also, the “latent viral protein expression” value in [10] is “no reduction was seen in latent viral protein expression”.
